Experimental data from ChEMBL document CHEMBL5131541, “Structural Feature Analyzation Strategies toward Discovery of Orally Bioavailable PROTACs of Bruton's Tyrosine Kinase for the Treatment of Lymphoma” (J Med Chem, 2022).

Key:
OCI-Ly10 [1] = experiment: Antitumor activity against human OCILY10 cells xenografted in SCID mouse assessed as tumor growth inhibition at 10 mg/kg, po qd measured after 17 days relative to control; type: functional; design: scale not given: the % may be the effect or the level left; settings: time 17 day
[2] = Tmax in ICR mouse at 20 mg/kg, po administered as single dose measured upto 48 hrs by LC-MS analysis; type: ADME, organism-based; settings: in vivo
[3] = target: T1, Tyrosine-protein kinase BTK (Homo sapiens, UniProt Q06187); experiment: Induction of BTK degradation in human MINO cells incubated for 24 hrs by Western blot analysis; type: cell-based; settings: dose 1-1000 nM, DDE = dose-dependent effect
T1 sequence (Q06187 whole entry): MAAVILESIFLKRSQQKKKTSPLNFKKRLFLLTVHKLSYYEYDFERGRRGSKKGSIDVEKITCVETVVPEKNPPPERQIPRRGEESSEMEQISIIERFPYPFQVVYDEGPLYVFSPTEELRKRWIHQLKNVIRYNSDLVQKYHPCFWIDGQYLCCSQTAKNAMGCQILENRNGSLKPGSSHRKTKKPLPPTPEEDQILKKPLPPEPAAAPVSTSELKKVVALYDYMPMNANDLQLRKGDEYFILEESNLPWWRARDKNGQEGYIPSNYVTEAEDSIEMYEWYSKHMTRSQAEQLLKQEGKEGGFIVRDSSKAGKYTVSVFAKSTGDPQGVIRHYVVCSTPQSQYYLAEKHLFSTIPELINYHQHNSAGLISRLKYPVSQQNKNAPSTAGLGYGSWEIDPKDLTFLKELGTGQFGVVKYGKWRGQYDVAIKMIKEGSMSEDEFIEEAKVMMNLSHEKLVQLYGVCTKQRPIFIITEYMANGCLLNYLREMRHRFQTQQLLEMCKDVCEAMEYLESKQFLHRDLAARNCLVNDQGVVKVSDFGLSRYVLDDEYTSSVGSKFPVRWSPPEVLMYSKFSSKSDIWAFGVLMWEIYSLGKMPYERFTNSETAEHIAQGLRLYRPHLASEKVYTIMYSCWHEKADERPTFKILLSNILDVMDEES

[4] = AUC (0 to t) in ICR mouse at 20 mg/kg, po administered as single dose measured upto 48 hrs by LC-MS analysis; type: ADME, organism-based; design: dose 20 mg/kg, time < 48 hrs, route po; settings: in vivo
[5] = Tmax in Sprague-Dawley rat at 10 mg/kg, po administered as cassette dose measured upto 24 hrs by LC-MS analysis; type: ADME, organism-based; settings: in vivo
[6] = Half life in Sprague-Dawley rat at 10 mg/kg, po administered as cassette dose measured upto 24 hrs by LC-MS analysis; type: ADME, organism-based; settings: in vivo
[7] = Cmax in ICR mouse at 20 mg/kg, po administered as single dose measured upto 48 hrs by LC-MS analysis; type: ADME, organism-based; design: dose 20 mg/kg, time < 48 hrs, route po; settings: in vivo
OCI-Ly10 [8] = experiment: cells; settings: Homo sapiens
[9] = target: T1, Tyrosine-protein kinase BTK; experiment: Inhibition of BTK (unknown origin)
MM1.S = experiment: cells; settings: Homo sapiens
[10] = AUC (0 to infinity) in ICR mouse at 20 mg/kg, po administered as single dose measured upto 48 hrs by LC-MS analysis; type: ADME, organism-based; design: dose 20 mg/kg, time < 48 hrs, route po; settings: in vivo
[11] = Half life in ICR mouse at 20 mg/kg, po administered as single dose measured upto 48 hrs by LC-MS analysis; type: ADME, organism-based; settings: in vivo
TMD8 = experiment: cells; settings: Homo sapiens
JeKo-1 [12] = experiment: cells; settings: Homo sapiens
[13] = Dose normalized AUC (0 to t) in Sprague-Dawley rat at 10 mg/kg, po administered as cassette dose measured upto 24 hrs by LC-MS analysis; type: ADME, organism-based; settings: in vivo
cells = settings: Homo sapiens, MINO
JeKo-1 [14] = experiment: cells; settings: Homo sapiens; remark: listed apart in the source
[15] = target: Tyrosine-protein kinase BTK (Mus musculus) (UniProt P35991); experiment: In vivo induction of BTK degradation in ICR mouse monocytes at 20 mg/kg, po after 8 hrs by Western blot analysis relative to control; type: functional, organism-based; settings: Monocyte
Sequence of Tyrosine-protein kinase BTK (Mus musculus) (P35991 whole entry): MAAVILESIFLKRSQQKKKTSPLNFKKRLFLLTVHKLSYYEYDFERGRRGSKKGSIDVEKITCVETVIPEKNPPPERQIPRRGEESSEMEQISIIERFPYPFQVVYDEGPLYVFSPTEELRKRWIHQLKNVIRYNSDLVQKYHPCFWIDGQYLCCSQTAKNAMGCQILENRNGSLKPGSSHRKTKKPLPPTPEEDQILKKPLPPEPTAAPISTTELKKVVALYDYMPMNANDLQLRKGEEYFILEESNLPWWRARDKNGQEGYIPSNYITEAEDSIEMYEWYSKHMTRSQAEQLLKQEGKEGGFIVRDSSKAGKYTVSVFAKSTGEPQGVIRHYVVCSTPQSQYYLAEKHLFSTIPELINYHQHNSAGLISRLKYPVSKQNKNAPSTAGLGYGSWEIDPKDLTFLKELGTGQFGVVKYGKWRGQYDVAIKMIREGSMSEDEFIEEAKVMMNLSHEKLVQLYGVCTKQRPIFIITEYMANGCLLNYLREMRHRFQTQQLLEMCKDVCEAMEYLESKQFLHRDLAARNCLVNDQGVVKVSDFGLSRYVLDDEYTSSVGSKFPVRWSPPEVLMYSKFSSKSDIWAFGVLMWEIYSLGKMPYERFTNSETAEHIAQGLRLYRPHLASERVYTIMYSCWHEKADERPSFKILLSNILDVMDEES

[16] = AUC (0 to t) in Sprague-Dawley rat at 10 mg/kg, po administered as cassette dose measured upto 24 hrs by LC-MS analysis; type: ADME, organism-based; design: dose 10 mg/kg, time < 24 hrs, route po; settings: in vivo
[17] = Cmax in Sprague-Dawley rat at 10 mg/kg, po administered as cassette dose measured upto 24 hrs by LC-MS analysis; type: ADME, organism-based; design: time < 24 hrs, dose 10 mg/kg, route po; settings: in vivo

Row | Tmax [2] | Activity [3] | AUC(0-t) at 48 h [4] | Tmax [5] | half-life [6] | Cmax [7] | IC50 (OCI-Ly10 [8]) | IC50 [9] | IC50 (MM1.S) | AUC(0-inf) [10] | half-life [11] | IC50 (TMD8) | IC50 (JeKo-1 [12]) | AUCt/dose [13] | IC50 (cells) | IC50 (JeKo-1 [14]) | Activity [15] | AUC(0-t) at 24 h [16] | Cmax [17] | Compound | Activity (OCI-Ly10 [1])
1 | – | – | – | – | – | – | – | – | – | – | – | – | – | – | – | – | – | – | – | C=CC(=O)N1CCC[C@@H](n2nc(-c3ccc(Oc4ccccc4)cc3)c3c(N)ncnc32)C1 [IBRUTINIB] | 50.7%
2 | 0.5 h | Dde | 374 ng·h/mL | 0.7 h | 6.5 h | 224 ng/mL | 12.9 nM | 6.3 nM | 1920 nM | 404 ng·h/mL | 2.6 h | 16.3 nM | 11600 nM | 29 ng·h/mL/mg | 123 nM | 825 nM | 37.2% | 288 ng·h/mL | 84 ng/mL | Nc1ncnc2c1c(-c1ccc(Oc3ccccc3)cc1)nn2[C@@H]1CCCN(C(=O)CCC(=O)N2CCN(CC#Cc3ccc4c(c3)CN(C3CCC(=O)NC3=O)C4=O)CC2)C1 (some centres undefined) | –
3 | 0.3 h | Dde | 39 ng·h/mL | 0.7 h | 7.9 h | 20 ng/mL | 40.2 nM | 24.4 nM | > 20000 nM | 55 ng·h/mL | 5.3 h | 106 nM | 20000 nM | 215 ng·h/mL/mg | 800 nM | 6570 nM | 16.5% | 21.5 ng·h/mL | 461 ng/mL | Nc1ncnc2c1c(-c1ccc(Oc3ccccc3)cc1)nn2[C@@H]1CCCN(C(=O)CC(=O)NCC#CCN2CCN(CC#Cc3ccc4c(c3)CN(C3CCC(=O)NC3=O)C4=O)CC2)C1 (some centres undefined) | –
